For one data set, the target named is T1, hCB1 (Homo sapiens, UniProt P21554).
T1 construct: expressed in transfected cells; host or cells: HEK293
Kind of data set: Forskolin-stimulated cAMP assay. The format is cell-based. As for the experimental part:
Intracellular cAMP levels were measured with a competitive protein-binding assay using intact HEK293 cells expressing hCB1 or hCB2 and a cAMP immunoassay kit from Sigma (St. Louis, Mo.). In short, forskolin stimulated cells were incubated with various concentrations of compound, cAMP anti-body and cAMP conjugate for 2 hours at ambient temperature. The reaction was stopped by emptying the wells followed by the addition of p-NPP substrate and incubation for 1 hour. […] The results were expressed as percent inhibition of forskolin-stimulated cAMP accumulation and EC50 curves were generated with the use of GraphPad Prism software.
On the technique in general: Cyclic AMP is a second messenger, typically raised through Gs and lowered through Gi signalling.

A further data set relates to adult male ferrets. In words: Emesis studies: vomiting induced by the emetic M6G. In kind it is in vivo, ferret. Conditions: for mean number of vomiting episodes±SEM: 60 min observation. The method, then:
Ferrets were lightly anaesthetized with halothane for each injection. Data were videotaped and analyzed by an observer blinded to the conditions of each treatment group. During 60 min of observation the number of vomiting (emetic) episodes were counted, and activity or sleeping time was noted. […] Each ferret acted as its own control, conditions were randomized via a counter balance design and separated by at least 14 days.

The target in the next data set is CB1 receptor (Rattus norvegicus, UniProt P20272). In words: [3H]CP55,940 competitive binding assay, CB1 (rat brain membranes). Details: membrane preparations from rat brain; from tissue; host or cells: rat brain membranes. The method, then: (§1) Compounds were tested for their CB1 and CB2 receptor using membrane preparations from rat brain or HEK293 cells expressing hCB2 receptor, respectively, and [^3H]CP55,940 as previously described 1, 36-38. Stock solutions of the compounds (10 mM in DMSO) were diluted in TME buffer (50 mM Tris-HCL, 3 mM MgCl2, 100 mM NaCl, 0.2 mM EDTA, pH 7.4) with 0.1% BSA and transferred to 96 well plates containing [^3H]CP55,940 (specific activity 128 Ci/mmol; NIDA) at a final concentration of 0.76 nM. Non-specific binding was assessed in the presence of 100 nM CP55,940. The binding reaction was initiated with the addition of the respective membrane suspension (˜50 μg membrane protein) followed by incubation at 30° C. with gentle agitation in a shaking water bath for 60 minutes. […] The filter plates were washed with ice-cold wash buffer (50 mM Tris-base, 5 mM MgCl2 with 0.5% BSA) and bound radioactivity was determined using a Packard TopCount Scintillation Counter. The results were analyzed using nonlinear regression to determine the actual IC50 and the Ki values of the ligand (Prizm by GraphPad Software, Inc.). All data were in duplicate with IC50 and Ki values determined from at least two independent experiments.
(§2) The affinity of a compound for CB1 vs. CB2 is determined by the ratio of the inhibitory constants (Ki), as determined by the competitive binding assay.

A further data set deals with T2, hCB2 receptor (Homo sapiens, UniProt P34972).
T2 construct: expressed in transfected cells; host or cells: HEK293
Kind of data set: [3H]CP55,940 competitive binding assay, CB2 (HEK293 cells expressing hCB2). The following applies: against [3H]CP55,940; HEK293 hCB2 membranes. The method, then:
as §1, §2

The subject of data set [1] is Rats. In words: Operant lever pressing on FR5 schedules. In kind it is in vivo, rat. As for the experimental part: Following the initial training period, rats (n=8 each group) were injected with drug and then tested once a week on Thursdays. For experiments 1 and 2, Compound 3 or Compound 2, respectively were injected IP at doses of 1.0, 2.0, 4.0, or 8.0 mg/kg or vehicle. Pretreatment time for these two experiments was 30 min. For experiments 3 and 4, rats were given drug or vehicle orally 1 hour before testing. In experiment 3, rats were given vehicle or 8.0, 16.0, or 32.0 mg/kg Compound 3. In experiment 4, rats received vehicle or Compound 2 at doses of 4.0, 8.0, or 16.0 mg/kg. All doses were given in a randomized order using a repeated measures design.

Data set [2] has as its system Rats. In words: Food intake studies using different diets. The format is in vivo, rat. Conditions: 2.0, 4.0, 8.0 mg/kg IP 30 min prior; high-fat, high-carbohydrate, lab chow. The source says: Animals were assigned to three different diet conditions (n=10/group). One group was assigned to a high-fat diet (HF; Diet # D12451, Research Diets, New Brunswick, N.J., 20% protein, 45% fat, 35% carbohydrate). A second group was given a high-carbohydrate diet (HC; Diet # D12450B, Research Diets, New Brunswick, N.J., 20% protein, 10% fat, 70% carbohydrate). The remaining group was fed a standard chow diet (LC, 5P00 Prolab RMH 3000, PMI Nutrition International, St. Louis, Mo.; 26% protein, 14% fat, 60% carbohydrate). Food blocks from each type of diet were nutritionally complete and similar in appearance and weight. Rats were given free access to lab chow in their home cages until the beginning of a five day habituation period. On the first day of habituation, rats were assigned to their respective dietary groups and moved into suspended wire mesh test cages containing their assigned food type. After spending 30 min in the test cage, they were returned to their home cages. After this initial habituation period, rats were given free access to lab chow in their home cages every Thursday afternoon through Monday afternoon. Each Tuesday and Wednesday, rats spent 30 min in the test cages with their assigned diets. On Thursdays, the injected animals were placed in the test cages with a pre-weighed amount of assigned food. A piece of cardboard was placed underneath the chamber to catch spillage. […]

SMILES strings stand for the structures.

T1 sequence (P21554 whole entry): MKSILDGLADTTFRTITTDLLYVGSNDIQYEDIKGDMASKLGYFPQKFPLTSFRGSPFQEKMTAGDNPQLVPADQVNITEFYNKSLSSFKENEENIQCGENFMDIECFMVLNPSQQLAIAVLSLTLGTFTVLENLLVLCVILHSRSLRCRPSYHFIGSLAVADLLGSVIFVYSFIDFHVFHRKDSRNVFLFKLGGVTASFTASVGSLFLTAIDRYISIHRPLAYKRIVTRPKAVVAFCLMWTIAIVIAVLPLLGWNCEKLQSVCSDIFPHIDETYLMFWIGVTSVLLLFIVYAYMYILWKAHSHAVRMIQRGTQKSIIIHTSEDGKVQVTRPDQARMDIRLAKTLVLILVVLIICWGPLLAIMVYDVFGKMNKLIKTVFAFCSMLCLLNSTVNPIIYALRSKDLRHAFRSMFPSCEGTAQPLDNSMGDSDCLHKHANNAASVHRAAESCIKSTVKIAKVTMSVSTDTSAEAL
Chain of CB1 receptor (P20272 whole entry): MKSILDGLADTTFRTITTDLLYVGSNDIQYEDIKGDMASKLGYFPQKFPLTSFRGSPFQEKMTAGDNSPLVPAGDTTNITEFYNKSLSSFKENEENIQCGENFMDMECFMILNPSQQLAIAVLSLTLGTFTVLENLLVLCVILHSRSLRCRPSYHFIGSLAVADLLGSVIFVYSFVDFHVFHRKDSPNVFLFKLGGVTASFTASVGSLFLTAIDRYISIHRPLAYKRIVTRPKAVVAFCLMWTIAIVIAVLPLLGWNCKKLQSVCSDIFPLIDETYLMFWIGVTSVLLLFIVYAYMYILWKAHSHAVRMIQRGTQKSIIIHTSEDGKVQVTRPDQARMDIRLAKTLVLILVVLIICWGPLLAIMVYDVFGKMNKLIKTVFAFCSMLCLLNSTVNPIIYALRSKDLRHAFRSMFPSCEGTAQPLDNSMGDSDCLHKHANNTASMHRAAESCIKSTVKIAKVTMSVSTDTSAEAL
T2 sequence (P34972 whole entry): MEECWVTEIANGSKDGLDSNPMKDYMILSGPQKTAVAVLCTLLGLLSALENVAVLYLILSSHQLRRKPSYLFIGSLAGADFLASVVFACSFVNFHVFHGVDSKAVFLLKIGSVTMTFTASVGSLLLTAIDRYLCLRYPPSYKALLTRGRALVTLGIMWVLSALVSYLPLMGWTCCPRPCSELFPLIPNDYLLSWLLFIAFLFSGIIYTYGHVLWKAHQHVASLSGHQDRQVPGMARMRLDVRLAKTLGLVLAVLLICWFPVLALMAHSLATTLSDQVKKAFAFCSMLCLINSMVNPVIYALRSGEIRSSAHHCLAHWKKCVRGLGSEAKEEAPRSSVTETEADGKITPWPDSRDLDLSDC

For orientation: Ki means the equilibrium dissociation constant of an inhibitor or competing ligand from its target. Read a low Ki as higher affinity. By ED50 is commonly meant the midpoint of the dose-response relation. In the case of `Cc1c(C(=O)NN2CCCCC2)nn(-c2ccc(Cl)cc2Cl)c1-c1ccc(C#CCCC#N)cc1` [Compound 3], the “change of forskolin-stimulated cAMP accumulation” value at hCB1 (CB1 transfected HEK cells, up to concentrations of 630 nM) is reported as “did not change”. For the same molecule, at hCB1 (HEK293 cells transfected with human CB1 receptors), the “effect on forskolin stimulated cAMP production” value was “no effect”. Moreover, the “mean number of vomiting episodes±SEM” value was 2.0±0.6 in the data set with adult male ferrets (5 mg kg-1 I.P. 15 min before M6G), 2.0±0.4 in the data set on adult male ferrets (10 mg kg-1 I.P. 15 min before M6G) and 2.7±0.6 in the data set on adult male ferrets (20 mg kg-1 I.P. 15 min before M6G). For the same molecule, the “effect on number of vomiting episodes induced by M6G compared with vehicle” value with adult male ferrets (Compound 3 5, 10, 20 mg kg-1, Compound 1 5 mg kg-1) is given as “did not significantly increase”. The Ki on CB1 receptor (against [3H]CP55,940, rat brain membranes) was 0.89 ± 0.44 nM; at hCB2 receptor, 92 nM. Moreover, at CB1 receptor (ratio of Ki values), the “selectivity for CB1 versus CB2 receptors” value is recorded as roughly 100 fold. Moreover, the “suppression of FR5 responding compared to vehicle” value in the data set with Rats [1] (IP 1.0, 2.0, 4.0, 8.0 mg/kg) is listed as “significantly suppressed”. Besides, the ED50 with Rats [1] (Rattus norvegicus, IP, pretreatment 30 min, read-out: ED50 for the effect on FR5 responding) amounted to 0.78 mg/kg. Besides, in the data set on Rats [1] (oral, 1 hour before testing (Compound 3 8.0-32.0 mg/kg; Compound 2 4.0-16.0 mg/kg)), the “change in lever pressing on FR5 compared to vehicle” value is given as “no significant change”. The “food intake over vehicle across all diet groups” value in the data set on Rats [2] was “significantly suppressed food intake”.
